Test results taken from ChEMBL document CHEMBL3632533, “O-Benzoyl pyridine aldoxime and amidoxime derivatives: novel efficient DNA photo-cleavage agents” (Medchemcomm, 2015).
Calls of active or inactive are those of the source. The rule behind the calls is not given here.

Columns and labels:
[1] = system: Enterobacteria phage lambda; assay: Induction of Lambda phage supercoiled circular pBluescript KS II DNA cleavage assessed as double-stranded nick formation at 1000 uM preincubated for 30 mins followed by UV light irradiation under aerobic condition measured after 15 mins by agarose gel electrophoresis
[2] = system: Enterobacteria phage lambda; assay: Induction of Lambda phage supercoiled circular pBluescript KS II DNA cleavage assessed as single-stranded nick formation at 500 uM preincubated for 30 mins followed by UV light irradiation under aerobic condition measured after 15 mins by agarose gel electrophoresis
[3] = system: Enterobacteria phage lambda; assay: Induction of Lambda phage supercoiled circular pBluescript KS II DNA cleavage assessed as single-stranded nick formation at 1000 uM preincubated for 30 mins followed by UV light irradiation under aerobic condition measured after 15 mins by agarose gel electrophoresis
[4] = system: Enterobacteria phage lambda; assay: Induction of Lambda phage supercoiled circular pBluescript KS II DNA cleavage assessed as single-stranded nick formation at 100 uM preincubated for 30 mins followed by UV light irradiation under aerobic condition measured after 15 mins by agarose gel electrophoresis
[5] = system: Enterobacteria phage lambda; assay: Induction of Lambda phage supercoiled circular pBluescript KS II DNA cleavage incubated for 30 mins by agarose gel electrophoresis in absence of UV light irradiation
[6] = system: Enterobacteria phage lambda; assay: Induction of Lambda phage supercoiled circular pBluescript KS II DNA cleavage assessed as double-stranded nick formation at 1 uM preincubated for 30 mins followed by UV light irradiation under aerobic condition measured after 15 mins by agarose gel electrophoresis
[7] = system: Enterobacteria phage lambda; assay: Induction of Lambda phage supercoiled circular pBluescript KS II DNA cleavage assessed as single-stranded nick formation at 1 uM preincubated for 30 mins followed by UV light irradiation under aerobic condition measured after 15 mins by agarose gel electrophoresis
[8] = system: Enterobacteria phage lambda; assay: Induction of Lambda phage supercoiled circular pBluescript KS II DNA cleavage assessed as single-stranded nick formation at 100 uM preincubated for 30 mins followed by UV light irradiation measured after 15 mins by agarose gel electrophoresis in presence of argon
[9] = system: Enterobacteria phage lambda; assay: Induction of Lambda phage supercoiled circular pBluescript KS II DNA cleavage assessed as double-stranded nick formation at 500 uM preincubated for 30 mins followed by UV light irradiation under aerobic condition measured after 15 mins by agarose gel electrophoresis
[10] = system: Enterobacteria phage lambda; assay: Induction of Lambda phage supercoiled circular pBluescript KS II DNA cleavage assessed as double-stranded nick formation at 10 uM preincubated for 30 mins followed by UV light irradiation under aerobic condition measured after 15 mins by agarose gel electrophoresis
[11] = system: Enterobacteria phage lambda; assay: Induction of Lambda phage supercoiled circular pBluescript KS II DNA cleavage assessed as single-stranded nick formation at 100 uM preincubated for 30 mins followed by UV light irradiation under aerobic condition measured after 15 mins by agarose gel electrophoresis in presence of 20% DMSO
[12] = system: Enterobacteria phage lambda; assay: Induction of Lambda phage supercoiled circular pBluescript KS II DNA cleavage assessed as double-stranded nick formation at 100 uM preincubated for 30 mins followed by UV light irradiation under aerobic condition measured after 15 mins by agarose gel electrophoresis
[13] = system: Enterobacteria phage lambda; assay: Induction of Lambda phage supercoiled circular pBluescript KS II DNA cleavage assessed as single-stranded nick formation at 100 uM preincubated for 30 mins followed by UV light irradiation under aerobic condition measured after 15 mins by agarose gel electrophoresis in presence of D2O
[14] = system: Enterobacteria phage lambda; assay: Induction of Lambda phage supercoiled circular pBluescript KS II DNA cleavage assessed as double-stranded nick formation at 100 uM preincubated for 30 mins followed by UV light irradiation measured after 15 mins by agarose gel electrophoresis in presence of argon
[15] = system: Enterobacteria phage lambda; assay: Induction of Lambda phage supercoiled circular pBluescript KS II DNA cleavage assessed as double-stranded nick formation at 100 uM preincubated for 30 mins followed by UV light irradiation under aerobic condition measured after 15 mins by agarose gel electrophoresis in presence of 20% DMSO
[16] = system: Enterobacteria phage lambda; assay: Induction of Lambda phage supercoiled circular pBluescript KS II DNA cleavage assessed as single-stranded nick formation at 100 uM preincubated for 30 mins followed by UV light irradiation under aerobic condition measured after 15 mins by agarose gel electrophoresis in presence of NaN3
[17] = system: Enterobacteria phage lambda; assay: Induction of Lambda phage supercoiled circular pBluescript KS II DNA cleavage assessed as single-stranded nick formation at 10 uM preincubated for 30 mins followed by UV light irradiation under aerobic condition measured after 15 mins by agarose gel electrophoresis
[18] = system: Enterobacteria phage lambda; assay: Induction of Lambda phage supercoiled circular pBluescript KS II DNA cleavage preincubated for 30 mins followed by UV light irradiation under aerobic condition measured after 15 mins by agarose gel electrophoresis
[19] = system: Enterobacteria phage lambda; assay: Induction of Lambda phage supercoiled circular pBluescript KS II DNA cleavage assessed as double-stranded nick formation at 100 uM preincubated for 30 mins followed by UV light irradiation under aerobic condition measured after 15 mins by agarose gel electrophoresis in presence of D2O

SMILES | Activity [1] [%] | Activity [2] [%] | Activity [3] [%] | Activity [4] [%] | Activity [5] | Activity [7] [%] | Activity [12] [%] | also measured
O=C(O/N=C/c1cccnc1)c1ccccc1 | 1 | 38 | 72 | 39 | inactive |  |  | 
COc1ccc(C(=O)O/N=C/c2cccnc2)cc1 |  | 29 | 35 | 0 | inactive |  |  | 
O/N=C/c1cccnc1 |  |  |  |  | inactive |  |  | Activity [18]: inactive
O=C(O/N=C/c1ccccn1)c1ccc([N+](=O)[O-])cc1 | 7 |  | 86 | 83 | inactive | 46 | 10 | 
N/C(=N\O)c1cccnc1 |  |  |  |  | inactive |  |  | Activity [18]: inactive
CC(=O)O/N=C(\N)c1cccnc1 |  | 6 | 0 | 0 | inactive |  |  | 
N=C(NOC(=O)c1ccccc1)c1cccnc1 |  | 25 | 25 | 5 | inactive |  |  | 

Second part, led by results:

Activity [1] [%] | Activity [2] [%] | Activity [3] [%] | Activity [4] [%] | Activity [5] | Activity [7] [%] | Activity [12] [%] | SMILES | also measured
36 | 75 | 64 | 81 | inactive | 56 | 4 | NC(=NOC(=O)c1ccc([N+](=O)[O-])cc1)c1cccnc1 | Activity [6]: 4%; Activity [8]: 86%; Activity [9]: 2%; Activity [10]: Active; Activity [11]: 83%; Activity [13]: 28%; Activity [14]: 6%; Activity [15]: 5%; Activity [16]: 16%; Activity [17]: Active
13 | 81 | 84 | 84 | inactive | 59 | 2 | O=C(O/N=C/c1cccnc1)c1ccc([N+](=O)[O-])cc1 | Activity [19]: 8%; Activity [8]: 85%; Activity [9]: 2%; Activity [11]: 75%; Activity [13]: 85%; Activity [14]: 9%; Activity [15]: 20%; Activity [16]: 23%
33 |  | 67 | 87 | inactive | 28 | 9 | O=C(O/N=C/c1ccncc1)c1ccc([N+](=O)[O-])cc1 | 
 | 27 | 36 | 0 | inactive |  |  | COc1ccc(C(=O)O/N=C(\N)c2cccnc2)cc1 | 
20 |  | 73 | 85 | inactive | 70 | 10 | NC(=NOC(=O)c1ccc([N+](=O)[O-])cc1)c1ccccn1 | Activity [6]: 15%; Activity [10]: Active; Activity [17]: Active
50 |  | 50 | 75 | inactive | 25 | 7 | N/C(=N\OC(=O)c1ccc([N+](=O)[O-])cc1)c1ccncc1 | Activity [10]: Active; Activity [17]: Active
